Assay results published in patent US20220241422A1, “DRUG DELIVERY COMPOSITION AND PHARMACEUTICAL COMPOSITION” (Nihon University, priority 2019, published 2022).

What was measured:
[1] = tested on: ALS model mice (G93A SOD1 transgenic mouse); test: Oral administration test for NAC in ALS model mice (Rota-Rod motor function, survival time); format: in vivo; conditions: oral administration from 15 weeks of age, vs water-administered group
Description: NAC is considered to be effective for treating ALS as a result of its effect of removing active oxygen. Thus, NAC was used as a test drug for ALS treatment.
As a test animal, G93A SOD1 transgenic mouse (G93A), which is one of the ALS model animals, was used. […] The research group of the present inventors has already reported the characteristics of the change (progression) in the motor dysfunction of this G93A (Miyagisi H et al., J Pharmacol Sci., 118, 225-236 (2012)).
NAC was orally administered to G93A from 15 weeks of age (105 days of age) after the onset of ALS, and the motor function and the survival time were examined. Water was orally administered as a negative control.
The motor function was evaluated using Rota-Rod (Muromachi Kikai Co., Ltd.). in order to acclimatize mice to Rota-Rod, mice were trained from 3 weeks (12 weeks of age) before the day of measurement initiation. The rotation speed of Rota-Rod was set to 24 times/minute. The measurement was performed twice a week, and the time (seconds) taken until the mouse fell from Rota-Rod was measured. The cut-off value was set to 300 seconds, while in the case of falling, the average value of three times was used as the score for that day, and measurements were taken up to 133 days after birth.

ALS model mice (G93A) = test: Nasal administration test for NAC/PEG-PCL-Tat in ALS model mice (Rota-Rod motor function); format: in vivo, mouse; conditions: nasal administration 105 to 120 days of age, 5 days a week; compared with untreated
Description: A drug solution was prepared by dissolving NAC in HEPES buffer solution (pH 7.4) at a concentration of 50 mg/mL.
The drug solution was administered to G93A for a period from 105 days of age (15 weeks of age) after birth to 120 days of age, at a frequency of 5 days a week. […] Under inhalation anesthesia using a mask in which the vicinity of the nostrils could be opened or closed, 2 μL each of the drug solution was alternately administered to the right and left nasal cavities every 30 seconds using a micropipette (see FIG. 3). Only male mice were used for the test, and in principle, administration was performed in the morning (10:00 to 12:00).
The motor function was evaluated using Rota-Rod (Muromachi Kikai Co., Ltd.). In order to acclimatize mice to Rota-Rod, mice were trained from 3 weeks (12 weeks of age) before the day of measurement initiation. The rotation speed of Rota-Rod was set to 24 times/minute. The measurement was performed twice a week, and the time (seconds) taken until the mouse fell from Rota-Rod was measured. The cut-off value was set to 300 seconds, while in the case of falling, the average value of three times was used as the score for that day, and measurements were taken up to 122 days after birth.

With `CC(=O)N[C@@H](CS)C(=O)O` [NAC, N-Acetyl-Cysteine] the “motor function (Rota-Rod)” value [1] was “no difference”, the survival time [1] was “no difference” and the “suppression of hypanakinesia (Rota-Rod, FIG. 4A)” value (ALS model mice (G93A)) was “hypanakinesia was suppressed”.
